According to patent US20240270748A1 (Merck Patent GmbH, priority 2021, published 2024):

Columns and labels:
YAP-TEAD interaction = assay: SK-HEP-1 reporter assay (8xTEAD responsive elements driving NanoLuc luciferase); format: cell-based
In short: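 SK-HEP-1 cells stably carrying 8×TEAD-driven NanoLuc treated in duplicate, 10-point dose from 30 μM final, 0.3% DMSO, 24 h at 37° C. Luminescence after NanoGlo lysis/substrate addition; IC50 calculated from dose response.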

SW620 Yap KO cells = assay: Viability assay in SW620 Yap KO (Yap independent) cells, CyQuant; format: cell-based; details: n.d. = value not detectable below threshold given in parentheses
In short: (§1)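 Seeded cells were dosed 24 h later in duplicate (10-point, 1:3 dilutions, top 30 μM final, 0.3% DMSO) and incubated 96 h at 37 °C. Viability was read with CyQUANT DNA dye after 1 h, fluorescence bottom read. NCI-H226 in RPMI 1640 medium; SW620 YAP/TAZ CRISPR knockout in DMEM/F-12 medium.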

NCI-H226 cells = assay: Viability assay in NCI-H226 (Yap-dependent) cells, CyQuant; format: cell-based, human
In short: as §1

[1] = Homo sapiens, SK-HEP1, SK-HEP-1 reporter assay, class symbols
[2] = Homo sapiens, SW-620, 96 h, ND = not determinable within the entire range
[3] = Homo sapiens, NCI-H226, 96 h, class symbols
[4] = Homo sapiens, NCI-H226, 96 h, n.d. = value not detectable below threshold given in parentheses

SMILES | IC50 (YAP-TEAD interaction; [1]) | IC50 (SW620 Yap KO cells; [2]) | IC50 (NCI-H226 cells; [3]) | IC50 (SW620 Yap KO cells; Homo sapiens, SW-620, 96 h) | further results
C[C@@H](CCN(C)C(=O)c1ccc2c(c1)c1cn(C)nc1n2-c1ccc(C(F)(F)F)cc1)NC(=O)c1ccc2c(c1)c1cn(C)nc1n2-c1ccc(C(F)(F)F)cc1 [Example C48, N,2-dimethyl-N-[(3S)-3-({2-methyl-8-[4-(trifluoromethyl)phenyl]-2H,8H-pyrazolo[3,4-b]indol-5-yl}formamido)butyl]-8-[4-(trifluoromethyl)phenyl]-2H,8H-pyrazolo[3,4-b]indole-5-carboxamide] | 100 to 10000 nM | > 3200 nM | 1000 to 10000 nM | – | –
[2H]C1([2H])C(n2c3ccc(C(=O)O)cc3c3cn(C)nc32)C([2H])([2H])C([2H])([2H])C([2H])([2H])C1([2H])[2H] [Example C193, 8-[(2,2,3,3,4,4,5,5,6,6-^2H10)cyclohexyl]-2-methyl-2H,8H-pyrazolo[3,4-b]indole-5-carboxylic acid] | 100 to 10000 nM | – | – | > 30000 nM | IC50 (NCI-H226 cells; [4]): > 30000 nM
Cn1cc2c3cc(C(=O)N=[S@](=O)(CCO)Cc4ccccn4)ccc3n(-c3ccc(C(F)(F)F)cc3)c2n1 (single isomer, unassigned) [Example C175] | – | – | 1 to 100 nM | > 3000 nM | IC50 (YAP-TEAD interaction; Homo sapiens, SK-HEP1, SK-HEP-1 reporter assay, n.d. = value not detectable below threshold given in parentheses): > 9500 nM
Cn1cc2c3cc(C(=O)NC(CO)c4ccccn4)ccc3n(-c3ccc(C(F)(F)F)nc3)c2n1 (single isomer, unassigned) [Example C123] | 100 to 10000 nM | > 30000 nM | – | – | IC50 (NCI-H226 cells; 96 h, class symbols): 100 to 1000 nM
Cc1snc2c1c1cc(C(=O)N[C@@H](C)CO)ccc1n2-c1ccc(C(F)(F)F)cc1 [Example C70, N-[(2S)-1-hydroxypropan-2-yl]-3-methyl-8-[4-(trifluoromethyl)phenyl]-8H-[1,2]thiazolo [3,4-b]indole-5-carboxamide] | 10 to 100 nM | > 3200 nM | 1 to 100 nM | – | –
CNC(=O)c1ccc2c(c1)c1c(C)n(C)nc1n2-c1ccc(C(F)(F)F)cc1 [Example C96, N,2,3-trimethyl-8-[4-(trifluoromethyl)phenyl]-2H,8H-pyrazolo[3,4-b]indole-5-carboxamide] | 10 to 100 nM | > 3200 nM | 1 to 100 nM | – | –
CC(NC(=O)c1ccc2c(c1)c1cn(C)nc1n2-c1ccc(C(F)(F)F)cc1)c1ccn[nH]1 (single isomer, unassigned) [Example C76] | – | – | – | – | IC50 (YAP-TEAD interaction; SK-HEP-1 reporter assay, class symbols): 100 to 10000 nM; IC50 (SW620 Yap KO cells; 96 h, ND = not determinable within the entire range): > 3200 nM; IC50 (NCI-H226 cells; 96 h, class symbols): 1 to 100 nM

Now from value to compound, other results behind:

IC50 (YAP-TEAD interaction; [1]) | IC50 (SW620 Yap KO cells; [2]) | IC50 (NCI-H226 cells; [3]) | IC50 (SW620 Yap KO cells; Homo sapiens, SW-620, 96 h) | SMILES | further results
10 to 100 nM | – | 1 to 100 nM | > 30000 nM | Cn1nc2c3cc(C(=O)N=[S@@](C)(=O)CCO)ccc3n(-c3ccc(C(F)(F)F)cc3)c2n1 (single isomer, unassigned) [Example C191] | –
10 to 100 nM | > 3200 nM | 1 to 100 nM | – | Cc1snc2c1c1cc(C(=O)N=S(C)(=O)CCO)ccc1n2-c1ccc(C(F)(F)F)cc1 (single isomer, unassigned) [Example C101] | –
10 to 100 nM | > 30000 nM | 1 to 100 nM | – | Cn1cc2c3cc(C(=O)N=[S@@](C)(=O)CCO)ccc3n(-c3ccc(C(F)(F)F)cc3)c2n1 (single isomer, unassigned) [Example C74] | –
10 to 100 nM | – | 1 to 100 nM | > 30000 nM | Cn1cc2c3cc(C(=O)NC(CCO)c4ccccn4)ccc3n(-c3ccc(C(F)(F)F)cc3)c2n1 (stereo not drawn) [Example C225, N-[3-hydroxy-1-(pyridin-2-yl)propyl]-2-methyl-8-[4-(trifluoromethyl)phenyl]-2H,8H-pyrazolo[3,4-b]indole-5-carboxamide] | –
10 to 100 nM | > 30000 nM | 100 to 1000 nM | – | C[C@@H](NC(=O)c1ccc2c(c1)c1cn(C)nc1n2-c1ccc(C(F)(F)F)cc1)c1ccncc1 [Example C122, 2-methyl-N-[(1R)-1-(pyridin-4-yl)ethyl]-8-[4-(trifluoromethyl)phenyl]-2H,8H-pyrazolo[3,4-b]indole-5-carboxamide] | –
1 to 10 nM | > 3200 nM | – | – | Cn1cc2c3cc(S(=O)(=O)NC4CC4)ccc3n(-c3ccc(C(F)(F)F)cc3)c2n1 [Example C72, N-cyclopropyl-2-methyl-8-[4-(trifluoromethyl)phenyl]-2H,8H-pyrazolo[3,4-b]indole-5-sulfonamide] | IC50 (NCI-H226 cells; [4]): > 3200 nM
